The values that follow come from patent US20100292205A1, “Pyrimidone Compounds As GSK-3 Inhibitors” (PFIZER INC., priority 2006, published 2010).

In the assay the target is T1, Recombinant human GSK3β (Homo sapiens, UniProt P49841).
T1 construct: His-tag; made in house; host or cells: Sf9 insect cells / baculovirus
T1 sequence (P49841 whole entry): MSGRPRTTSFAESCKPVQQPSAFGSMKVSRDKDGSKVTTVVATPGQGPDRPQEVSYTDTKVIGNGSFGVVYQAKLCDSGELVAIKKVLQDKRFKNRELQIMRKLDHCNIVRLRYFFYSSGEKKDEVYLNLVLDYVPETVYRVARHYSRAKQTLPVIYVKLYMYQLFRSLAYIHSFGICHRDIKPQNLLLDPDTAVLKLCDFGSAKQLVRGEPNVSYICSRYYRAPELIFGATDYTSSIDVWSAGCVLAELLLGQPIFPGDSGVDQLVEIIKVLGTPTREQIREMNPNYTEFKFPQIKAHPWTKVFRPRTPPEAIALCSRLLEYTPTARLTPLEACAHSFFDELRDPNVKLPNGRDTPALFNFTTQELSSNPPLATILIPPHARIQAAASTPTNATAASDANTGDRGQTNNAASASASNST
The assay is described as follows: GSK-3β (Glycogen Synthase Kinase) cell free enzyme assay. Conditions: cell free enzyme assay; Examples 62-155. Format: biochemical. On the procedure:
Assay Protocol for GSK-3β (Glycogen Synthase Kinase) in a Cell Free Enzyme Assay
Recombinant human GSK3β was expressed in SF9/Baculo virus cells. His-tag protein was purified by affinity chromatography to a Ni-NTA Superflow column. Enzyme activity was assayed as the incorporation of [33P] from the gamma phosphate of [33P]ATP (PerkinElmer) into biotinylated peptide substrate bio-LC-S-R-H-S-S-P-H-Q-pS-E-D-E-E-E-OH (Anaspec). Reactions were carried out in a buffer containing 8 mM MOPS (pH 7.0), 10 mM Magnesium Acetate, 0.2 mM EDTA, 1 mM DTT and 2 uM cold ATP. The 33P-ATP was added for 0.025 uCi/well (120 uL) and the final concentration of substrate was 1.0 uM. Enzyme was preincubated with test agent for 30 minutes at room temperature followed by initiation of the reaction by the addition of substrate mix. Incubations were carried out at RT for 60 min. Reactions were stopped by addition of 0.66 volume of buffer containing: 12.5 mM EDTA, 0.25% Triton-X 100, 125 uM ATP, and 6.2 mg/ml streptavidin coated SPA beads (Amersham) in PBS without Ca or Mg. Radioactivity associated with the beads was quantified by scintillation counting of CPM in a Trilux counter (PerkinElmer).
Examples 42 to 60 were prepared using the analogous procedure described to prepare Example 41, substituting the appropriate starting material (Examples 1 to 35) and coupling with the appropriate acid. The assay protocol used is the percent inhibition at 1 μM for GSK-3β in the cell free enzyme assay described above.
Usually IC50 stands for the midpoint of a concentration-inhibition curve. In the case of `Cn1c(NC2CCN(C(=O)c3ccccc3)CC2)nc(-c2ccncc2)cc1=O` [Example 65, 2-[(1-Benzoylpiperidin-4-yl)amino]-3-methyl-6-pyridin-4-ylpyrimidin-4(3H)-one], the IC50 came out at 202 nM. In the case of `Cn1c(NC2CCCN(C(=O)c3ccccc3)C2)nc(-c2ccncc2)cc1=O` (stereo not drawn) [Example 66, 2-[(1-Benzoylpiperidin-3-yl)amino]-3-methyl-6-pyridin-4-ylpyrimidin-4(3H)-one] it was 1000 nM.

`Cn1c(N[C@H]2[C@@H]3CN(C(=O)c4ccccc4)C[C@@H]32)nc(-c2ccncc2)cc1=O` [Example 67, 2-{[(1R,5S,6s)-3-Benzoyl-3-azabicyclo[3.1.0]hex-6-yl]amino}-3-methyl-6-pyridin-4-ylpyrimidin-4(3H)-one]: the IC50 came to 2 nM. In the case of `Cn1c(N[C@@H]2CN(C(=O)c3ccccc3)C[C@@H]2F)nc(-c2ccncc2)cc1=O` [Example 68, 2-{[(3R,4S)-1-Benzoyl-4-fluoropyrrolidin-3-yl]amino}-3-methyl-6-pyridin-4-ylpyrimidin-4(3H)-one] it was 56 nM; in that of `CCN(c1nc(-c2ccncc2)cc(=O)n1C)C1CCN(C(=O)c2ccccc2)C1` (stereo not drawn) [Example 69, 2-[(1-Benzoylpyrrolidin-3-yl)(ethyl)amino]-3-methyl-6-pyridin-4-ylpyrimidin-4(3H)-one], 96.1 nM; in that of `CN(c1nc(-c2ccncc2)cc(=O)n1C)C1CCN(C(=O)c2ccccc2)C1` (stereo not drawn) [Example 70, 2-[(1-Benzoylpyrrolidin-3-yl)(methyl)amino]-3-methyl-6-pyridin-4-ylpyrimidin-4(3H)-one], 170 nM. In the case of `CCN(c1nc(-c2ccncc2)cc(=O)n1C)C1CCCN(C(=O)c2ccccc2)CC1` (stereo not drawn) [Example 71, 2-[(1-Benzoylazepan-4-yl)(ethyl)amino]-3-methyl-6-pyridin-4-ylpyrimidin-4(3H)-one] it was 36.3 nM; in that of `CN(c1nc(-c2ccncc2)cc(=O)n1C)C1CCCN(C(=O)c2ccccc2)CC1` (stereo not drawn) [Example 72, 2-[(1-Benzoylazepan-4-yl)(methyl)amino]-3-methyl-6-pyridin-4-ylpyrimidin-4(3H)-one], 61.5 nM; in that of `CCN(c1nc(-c2ccncc2)cc(=O)n1C)C1CCCN(C(=O)c2ccccc2)C1` (stereo not drawn) [Example 73, 2-[(1-Benzoylpiperidin-3-yl)(ethyl)amino]-3-methyl-6-pyridin-4-ylpyrimidin-4(3H)-one], 345 nM. For the compound `CCN(c1nc(-c2ccncc2)cc(=O)n1C)C1CCN(C(=O)c2ccccc2)CC1` [Example 74, 2-[(1-Benzoylpiperidin-4-yl)(ethyl)amino]-3-methyl-6-pyridin-4-ylpyrimidin-4(3H)-one], the IC50 was 144 nM. Turning to `Cn1c(NC[C@@H]2CCCN2C(=O)c2ccccc2)nc(-c2ccncc2)cc1=O` [Example 75, 2-({[(2S)-1-Benzoylpyrrolidin-2-yl]methyl}amino)-3-methyl-6-pyridin-4-ylpyrimidin-4(3H)-one], the IC50 stood at 183 nM. For `Cn1c(NCC2CN(C(=O)c3ccccc3)C2)nc(-c2ccncc2)cc1=O` [Example 76, 2-{[(1-Benzoylazetidin-3-yl)methyl]amino}-3-methyl-6-pyridin-4-ylpyrimidin-4(3H)-one], the IC50 stood at 72.4 nM. In the case of `CCN(C[C@H]1CCCN1C(=O)c1ccccc1)c1nc(-c2ccncc2)cc(=O)n1C` [Example 77, 2-[{[(2R)-1-Benzoylpyrrolidin-2-yl]methyl}(ethyl)amino]-3-methyl-6-pyridin-4-ylpyrimidin-4(3H)-one] it was 29.5 nM; in that of `Cn1c(NC[C@H]2CCCN2C(=O)c2ccccc2)nc(-c2ccncc2)cc1=O` [Example 78, 2-({[(2R)-1-Benzoylpyrrolidin-2-yl]methyl}amino)-3-methyl-6-pyridin-4-ylpyrimidin-4(3H)-one], 277 nM. In the case of `Cn1c(NCC2CCN(C(=O)c3ccccc3)C2)nc(-c2ccncc2)cc1=O` (stereo not drawn) [Example 79, 2-{[(1-Benzoylpyrrolidin-3-yl)methyl]amino}-3-methyl-6-pyridin-4-ylpyrimidin-4(3H)-one] it was 69.9 nM; in that of `Cn1c(NC2CCCN(C(=O)Cc3ccccc3)CC2)nc(-c2ccncc2)cc1=O` (stereo not drawn) [Example 80, 3-Methyl-2-{[1-(phenylacetyl)azepan-4-yl]amino}-6-pyridin-4-ylpyrimidin-4(3H)-one], 53.8 nM. In the case of `Cn1c(NC2CCN(C(=O)Cc3ccccc3)C2)nc(-c2ccncc2)cc1=O` (stereo not drawn) [Example 81, 3-Methyl-2-{[1-(phenylacetyl)pyrrolidin-3-yl]amino}-6-pyridin-4-ylpyrimidin-4(3H)-one] it was 111 nM; in that of `Cn1c(NC2CN(C(=O)Cc3ccccc3)C2)nc(-c2ccncc2)cc1=O` [Example 82, 3-Methyl-2-{[1-(phenylacetyl)azetidin-3-yl]amino}-6-pyridin-4-ylpyrimidin-4(3H)-one], 818 nM; in that of `Cn1c(N[C@H]2CN(C(=O)Cc3ccccc3)C[C@@H]2F)nc(-c2ccncc2)cc1=O` [Example 83, 2-{[(3S,4S)-4-Fluoro-1-(phenylacetyl)pyrrolidin-3-yl]amino}-3-methyl-6-pyridin-4-ylpyrimidin-4(3H)-one], 39 nM. For the compound `Cn1c(NC2CCCCN(C(=O)Cc3ccccc3)C2)nc(-c2ccncc2)cc1=O` (stereo not drawn) [Example 84, 3-Methyl-2-{[1-(phenylacetyl)azepan-3-yl]amino}-6-pyridin-4-ylpyrimidin-4(3H)-one], the IC50 was found to be 674 nM. In the case of `Cn1c(NC2CCN(C(=O)Cc3ccccc3)CC2)nc(-c2ccncc2)cc1=O` [Example 85, 3-Methyl-2-{[1-(phenylacetyl)piperidin-4-yl]amino}-6-pyridin-4-ylpyrimidin-4(3H)-one] it was 333 nM; in that of `Cn1c(NC2CCCN(C(=O)Cc3ccccc3)C2)nc(-c2ccncc2)cc1=O` (stereo not drawn) [Example 86, 3-Methyl-2-{[1-(phenylacetyl)piperidin-3-yl]amino}-6-pyridin-4-ylpyrimidin-4(3H)-one], 136 nM. In the case of `Cn1c(N[C@@H]2CN(C(=O)Cc3ccccc3)C[C@@H]2F)nc(-c2ccncc2)cc1=O` [Example 87, 2-{[(3R,4S)-4-Fluoro-1-(phenylacetyl)pyrrolidin-3-yl]amino}-3-methyl-6-pyridin-4-ylpyrimidin-4(3H)-one] it was 285 nM; in that of `CN(c1nc(-c2ccncc2)cc(=O)n1C)C1CCCN(C(=O)Cc2ccccc2)CC1` (stereo not drawn) [Example 88, 3-Methyl-2-{methyl[1-(phenylacetyl)azepan-4-yl]amino}-6-pyridin-4-ylpyrimidin-4(3H)-one], 102 nM; in that of `CCN(c1nc(-c2ccncc2)cc(=O)n1C)C1CCCN(C(=O)Cc2ccccc2)CC1` (stereo not drawn) [Example 89, 2-{Ethyl[1-(phenylacetyl)azepan-4-yl]amino}-3-methyl-6-pyridin-4-ylpyrimidin-4(3H)-one], 64.6 nM.

Turning to `CN(c1nc(-c2ccncc2)cc(=O)n1C)C1CCN(C(=O)Cc2ccccc2)C1` (stereo not drawn) [Example 90, 3-Methyl-2-{methyl[1-(phenylacetyl)pyrrolidin-3-yl]amino}-6-pyridin-4-ylpyrimidin-4(3H)-one], the IC50 was found to be 133 nM.

With `CCN(c1nc(-c2ccncc2)cc(=O)n1C)C1CCCN(C(=O)Cc2ccccc2)C1` (stereo not drawn) [Example 91, 2-{Ethyl[1-(phenylacetyl)piperidin-3-yl]amino}-3-methyl-6-pyridin-4-ylpyrimidin-4(3H)-one], the IC50 was found to be 147 nM. In the case of `CCN(c1nc(-c2ccncc2)cc(=O)n1C)C1CCN(C(=O)Cc2ccccc2)CC1` [Example 92, 2-{Ethyl[1-(phenylacetyl)piperidin-4-yl]amino}-3-methyl-6-pyridin-4-ylpyrimidin-4(3H)-one] it was 105 nM. In the case of `Cn1c(NC[C@@H]2CCCN2C(=O)Cc2ccccc2)nc(-c2ccncc2)cc1=O` [Example 93, 3-Methyl-2-({[(2S)-1-(phenylacetyl)pyrrolidin-2-yl]methyl}amino)-6-pyridin-4-ylpyrimidin-4(3H)-one], the IC50 is 878 nM.

`CCN(C[C@H]1CCCN1C(=O)Cc1ccccc1)c1nc(-c2ccncc2)cc(=O)n1C` [Example 94, 2-(Ethyl{[(2R)-1-(phenylacetyl)pyrrolidin-2-yl]methyl}amino)-3-methyl-6-pyridin-4-ylpyrimidin-4(3H)-one]: the IC50 came to 18.2 nM. `Cn1c(NCC2CN(C(=O)Cc3ccccc3)C2)nc(-c2ccncc2)cc1=O` [Example 95, 3-Methyl-2-({[1-(phenylacetyl)azetidin-3-yl]methyl}amino)-6-pyridin-4-ylpyrimidin-4(3H)-one]: the IC50 was found to be 1380 nM.

On to `CN(c1nc(-c2ccncc2F)cc(=O)n1C)[C@H]1[C@@H]2CN(C(=O)c3cccc(Cl)n3)C[C@@H]21` [Example 96, 2-[{(1R,5S,6s)-3-[(6-Chloropyridin-2-yl)carbonyl]-3-azabicyclo[3.1.0]hex-6-yl}(methyl)amino]-6-(3-fluoropyridin-4-yl)-3-methylpyrimidin-4(3H)-one], for which the IC50 stood at 3.92 nM. As for `CN(c1nc(-c2ccncc2F)cc(=O)n1C)[C@H]1[C@@H]2CN(C(=O)CC(F)(F)F)C[C@@H]21` [Example 97, 6-(3-Fluoropyridin-4-yl)-3-methyl-2-{methyl[(1R,5S,6s)-3-(3,3,3-trifluoropropanoyl)-3-azabicyclo[3.1.0]hex-6-yl]amino}pyrimidin-4(3H)-one], the IC50 came out at 55.4 nM.
